Where no end group is shown, it is not given here.
B1: TMV-Cy5.5 (+F127): Cy5.5 conjugated to TMV lysines via NHS ester, COAT method; Table 4 row Cy5.5 NHS (+F127) (conjugate, UniProt P69687 2-159, looked up)
Capsid protein: SYSITTPSQFVFLSSAWADPIELINLCTNALGNQFQTQQARTVVQRQFSEVWKPSPQVTVRFPDSDFKVYRYNAVLDPLVTALLGAFDTRNRIIEVENQANPTTAETLDATRRVDDATVAIRSAINNLIVELIRGTGSYNRSSFESSSGLVWTSGPAT
modifications: Cy5.5 dye, F127 coated virion
B2: TMV-Cy5.5 (−F127): Cy5.5 conjugated to uncoated TMV, control; Table 4 row Cy5.5 NHS (−F127) (conjugate, UniProt P69687 2-159, looked up)
Capsid protein: SYSITTPSQFVFLSSAWADPIELINLCTNALGNQFQTQQARTVVQRQFSEVWKPSPQVTVRFPDSDFKVYRYNAVLDPLVTALLGAFDTRNRIIEVENQANPTTAETLDATRRVDDATVAIRSAINNLIVELIRGTGSYNRSSFESSSGLVWTSGPAT
modifications: Cy5.5 dye on whole virion

Columns and labels:
[1] = Observed water / reaction buffer solubility of ligands; details: for solubility in the reaction buffer: 0.01 M potassium phosphate reaction buffer (pH 7.4); for Observed water solubility: Table 1
[2] = Dynamic light scattering (DLS) of plant VNPs and conjugates; format: physicochemical; details: purified conjugate particles; (+F127) = COAT/FORMCOAT, (−F127) = uncoated control
Description: DLS. The hydrodynamic diameter of native and conjugated plant VNPs was determined by diluting the samples to 1 mg/mL in 0.01 M potassium phosphate buffer (pH 7.4) followed by measurement using a Zetasizer Nano ZSP/Zen5600 instrument (Malvern Panalytical, Malvern, UK). The particle length was calculated as the weighted mean of the intensity distribution.

[3] = Aggregation / dispersion of conjugate particles (photograph, DLS, TEM); format: physicochemical; details: pH 7.4

Molecule | solubility in the reaction buffer [1] | Observed water solubility [1] | PDI [2] | Z-average [2] [nm] | aggregation / dispersion of the particles [3]
CC[C@H](C)[C@H](NC(=O)[C@H](Cc1c[nH]c2ccccc12)NC(=O)CNC(=O)[C@H](CCCNC(=N)N)NC(=O)[C@@H](NC(=O)[C@@H](NC(=O)[C@H](CC(N)=O)NC(=O)[C@H](CO)NC(=O)[C@H](CCCCN)NC(=O)[C@H](CCC(=O)O)NC(=O)[C@@H](NC(=O)[C@H](CO)NC(=O)[C@H](C)NC(=O)[C@H](Cc1ccccc1)NC(=O)CNC(=O)CNC(=O)CNC(=O)[C@@H](N)CS)[C@@H](C)O)[C@@H](C)CC)[C@@H](C)CC)C(=O)N[C@@H](Cc1ccccc1)C(=O)O [COVID-106] | insoluble | Poor |  |  | 
CSCC[C@H](NC(=O)[C@H](Cc1c[nH]c2ccccc12)NC(=O)[C@H](CO)NC(=O)[C@H](CCCCN)NC(=O)[C@H](CC(N)=O)NC(=O)[C@H](CC(N)=O)NC(=O)[C@H](CCCCN)NC(=O)[C@H](Cc1c[nH]cn1)NC(=O)[C@H](Cc1ccc(O)cc1)NC(=O)[C@H](Cc1ccc(O)cc1)NC(=O)[C@@H](NC(=O)CNC(=O)[C@H](CC(C)C)NC(=O)[C@H](Cc1ccccc1)NC(=O)[C@@H]1CCCN1C(=O)CNC(=O)CNC(=O)CNC(=O)[C@@H](N)CS)C(C)C)C(=O)O [COVID-153] | insoluble | Poor |  |  | 
CC(C)C[C@H](NC(=O)[C@H](Cc1ccc(O)cc1)NC(=O)[C@H](CC(N)=O)NC(=O)[C@H](Cc1ccc(O)cc1)NC(=O)[C@H](CC(N)=O)NC(=O)CNC(=O)CNC(=O)[C@@H](NC(=O)[C@H](CCCCN)NC(=O)[C@H](CO)NC(=O)[C@H](CC(=O)O)NC(=O)[C@H](CC(C)C)NC(=O)[C@H](CC(N)=O)NC(=O)[C@H](CC(N)=O)NC(=O)CNC(=O)CNC(=O)CNC(=O)[C@@H](N)CS)C(C)C)C(=O)N[C@@H](Cc1ccc(O)cc1)C(=O)N[C@@H](CCCNC(=N)N)C(=O)O [COVID-454] | insoluble | Poor |  |  | 
CC[C@H](C)[C@H](NC(=O)[C@H](Cc1ccccc1)NC(=O)[C@H](CO)NC(=O)[C@H](CCCNC(=N)N)NC(=O)[C@H](CCCCN)NC(=O)[C@H](CO)NC(=O)[C@@H]1CCCN1C(=O)[C@H](CCCCN)NC(=O)[C@H](CO)NC(=O)[C@@H]1CCCN1C(=O)CNC(=O)CNC(=O)CNC(=O)[C@@H](N)CS)C(=O)N[C@@H](CCC(=O)O)C(=O)N[C@@H](CC(=O)O)C(=O)N[C@@H](CC(C)C)C(=O)N[C@@H](CC(C)C)C(=O)N[C@@H](Cc1ccccc1)C(=O)N[C@@H](CC(N)=O)C(=O)N[C@@H](CCCCN)C(=O)N[C@H](C(=O)O)C(C)C [COVID-826] |  | Good |  |  | 
CGGGVFLQKYPHTHLVHQA [Myostatin 1] |  | Good |  |  | 
CSGGGDWFKAFYDKVAEKFKEAF [ApoAI-4FN] |  | Good |  |  | 
CSGGGWGWSLSHGYQVK [ScG3] |  | Good |  |  | 
YQDMVLWKDVFRKNNQLAPVGPSLC [CH401-Rat] | insoluble | Poor |  |  | 
B1 |  |  | 0.236 | 277.6 | dispersed and soluble, with no visible signs of aggregation
B2 |  |  | 0.749 | 436.8 | prone to aggregation
